Experiment [1] deals with Cannabinoid receptor 2 (Homo sapiens, UniProt P34972). The experiment in a line: Displacement of [3H]CP-55940 from CB2 receptor. (In general: Loss of bound radioactivity is the signal in a displacement assay; it reports binding, not function.)
Experiment [2] can be described thus: Selectivity ratio of Ki for CB1 receptor to Ki for CB2 receptor.
Experiment [3] has as its target Cannabinoid receptor 1 (Homo sapiens, UniProt P21554). Put plainly: Displacement of [3H]CP-55940 from CB1 receptor.

Sequence of Cannabinoid receptor 1 (P21554 whole entry): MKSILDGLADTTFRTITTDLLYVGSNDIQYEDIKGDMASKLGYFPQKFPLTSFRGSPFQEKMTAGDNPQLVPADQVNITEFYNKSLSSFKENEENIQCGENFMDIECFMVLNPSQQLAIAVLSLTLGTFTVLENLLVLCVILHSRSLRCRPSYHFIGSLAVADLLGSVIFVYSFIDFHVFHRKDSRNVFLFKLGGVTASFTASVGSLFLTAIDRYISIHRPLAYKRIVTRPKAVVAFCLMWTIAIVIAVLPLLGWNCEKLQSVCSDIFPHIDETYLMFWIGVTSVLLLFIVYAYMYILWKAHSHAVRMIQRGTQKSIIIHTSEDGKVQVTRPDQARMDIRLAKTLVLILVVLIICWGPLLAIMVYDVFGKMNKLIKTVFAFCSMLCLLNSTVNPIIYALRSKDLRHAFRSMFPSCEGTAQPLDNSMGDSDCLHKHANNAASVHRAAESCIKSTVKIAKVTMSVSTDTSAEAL
Sequence of Cannabinoid receptor 2 (P34972 whole entry): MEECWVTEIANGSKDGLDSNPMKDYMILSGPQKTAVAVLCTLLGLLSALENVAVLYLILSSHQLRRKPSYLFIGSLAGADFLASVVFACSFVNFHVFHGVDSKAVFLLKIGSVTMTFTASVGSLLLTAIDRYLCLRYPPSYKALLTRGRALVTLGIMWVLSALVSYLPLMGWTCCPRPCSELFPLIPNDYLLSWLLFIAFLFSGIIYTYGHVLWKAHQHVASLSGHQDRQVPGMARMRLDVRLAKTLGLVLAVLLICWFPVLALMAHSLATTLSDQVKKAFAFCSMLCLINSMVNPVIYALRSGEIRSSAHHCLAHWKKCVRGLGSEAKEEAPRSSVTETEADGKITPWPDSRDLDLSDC

As usually defined, the Ki is the equilibrium dissociation constant of an inhibitor or competing ligand from its target. A higher Ki goes with a looser hold on the target. Turning to `CCCCCCC(C)(C)c1cc(N)c2c(c1)OC(C)(C)[C@@H]1CCC(C)=C[C@@H]21`, the results for the Ki in experiment [1] and in experiment [3] were 2.9 nM and 0.0117 µM, respectively. Besides, in experiment [2], the Ratio Ki was found to be 4.
`CCCCCc1cc2c(c(C(N)=O)c1)[C@@H]1C=C(C)CC[C@H]1C(C)(C)O2`: the figures for the inhibition constant (Ki) in experiment [1] and in experiment [3] were 2190 nM and over 3 µM, respectively.
Consider `CCCCCc1cc(N)c2c(c1)OC(C)(C)[C@@H]1CCC(C)=C[C@@H]21`, for which the Ki stood at 215 nM in experiment [1] and 0.616 µM in experiment [3]. Moreover, in experiment [2], the Ratio Ki was determined as 3.
Consider `CCCCCc1cc2c(c(C(=O)O)c1)[C@@H]1C=C(C)CC[C@H]1C(C)(C)O2`, for which the Ki is over 3000 nM in experiment [1] and over 3 µM in experiment [3].
With `CCCCCCC(C)(C)c1cc(NC(=O)NC)c2c(c1)OC(C)(C)[C@@H]1CCC(C)=C[C@@H]21`, the results for the inhibitory constant (Ki) in experiment [1] and in experiment [3] were 257 nM and 0.333 µM, respectively. Besides, in experiment [2], the Ratio Ki was 1.
For the compound `CCCCCCC(C)(C)c1cc(O)c2c(c1)OC(C)(C)[C@@H]1CCC(C)=C[C@@H]21`, the Ki was 0.2 nM in experiment [1] and 0.00024 µM in experiment [3]. In experiment [2], the Ratio Ki was determined as 1.
For `CCCCCc1cc(C#N)c2c(c1)OC(C)(C)[C@@H]1CCC(C)=C[C@@H]21` the same measures were 387 nM, 1.72 µM and 3.
On to `CCCCCc1cc(CNC(C)=O)c2c(c1)OC(C)(C)[C@@H]1CCC(C)=C[C@@H]21`, for which the Ki was 1500 nM in experiment [1] and over 3 µM in experiment [3].
As for `CCCCCc1cc(NC(=O)c2ccncc2)c2c(c1)OC(C)(C)[C@@H]1CCC(C)=C[C@@H]21`, the inhibition constant (Ki) in experiment [1] is 1770 nM; in experiment [3], over 3 µM.
As to `CCCCCCC(C)(C)c1cc(NC(=O)c2ccncc2)c2c(c1)OC(C)(C)[C@@H]1CCC(C)=C[C@@H]21`, the Ki in experiment [1] is 1090 nM; in experiment [3] it was over 3 µM. For the same compound, in experiment [2], the Ratio Ki is over 3.
Turning to `CCCCCc1cc(NC(=O)NC)c2c(c1)OC(C)(C)[C@@H]1CCC(C)=C[C@@H]21`, the results for the Ki in experiment [1] and in experiment [3] were 2050 nM and over 3 µM, respectively.
For `CCCCCc1cc2c(c(N(C)C)c1)[C@@H]1C=C(C)CC[C@H]1C(C)(C)O2` the same measures were over 3000 nM and over 3 µM.
For `CCCCCc1cc2c(c(C(=O)NC(CO)CO)c1)[C@@H]1C=C(C)CC[C@H]1C(C)(C)O2` the same measures were 2000 nM and over 3 µM.
For `CCCCCc1cc(CN)c2c(c1)OC(C)(C)[C@@H]1CCC(C)=C[C@@H]21`, in that order: over 3000 nM and over 3 µM.
Regarding `CCCCCc1cc(NS(C)(=O)=O)c2c(c1)OC(C)(C)[C@@H]1CCC(C)=C[C@@H]21`, the Ki in experiment [1] was 1720 nM; in experiment [3], over 3 µM.
Take `CCCCCc1cc2c(c(C(=O)N(C)C)c1)[C@@H]1C=C(C)CC[C@H]1C(C)(C)O2`: the Ki in experiment [1] is 1210 nM; in experiment [3] it was over 3 µM.
For `CCCCCc1cc2c(c([S+](C)[O-])c1)[C@@H]1C=C(C)CC[C@H]1C(C)(C)O2` (single isomer, unassigned; diastereomer A), in that order: 1930 nM and over 3 µM.
As to `CCCCCc1cc2c(c(C(=O)NC)c1)[C@@H]1C=C(C)CC[C@H]1C(C)(C)O2`, the inhibitory constant (Ki) is 1260 nM in experiment [1] and over 3 µM in experiment [3].
Turning to `CCCCCc1cc(NC(=O)OC)c2c(c1)OC(C)(C)[C@@H]1CCC(C)=C[C@@H]21`, the figures for the Ki in experiment [1] and in experiment [3] were 1400 nM and over 3 µM, respectively.
For `CCCCCc1cc(NC(=O)CN(C)C)c2c(c1)OC(C)(C)[C@@H]1CCC(C)=C[C@@H]21` the same measures were over 3000 nM and over 3 µM.
For `CCCCCc1cc(NC(C)=O)c2c(c1)OC(C)(C)[C@@H]1CCC(C)=C[C@@H]21`, in that order: 1400 nM and over 3 µM.
Consider `CCCCCc1cc(NC(N)=O)c2c(c1)OC(C)(C)[C@@H]1CCC(C)=C[C@@H]21`, for which the Ki was over 3000 nM in experiment [1] and over 3 µM in experiment [3].
Turning to `CCCCCCC(C)(C)c1cc(NC(C)=O)c2c(c1)OC(C)(C)[C@@H]1CCC(C)=C[C@@H]21`, the figures for the Ki in experiment [1] and in experiment [3] were 216 nM and 1.34 µM, respectively. The Ratio Ki in experiment [2] is 6.
Regarding `CCCCCc1cc2c(c(SC)c1)[C@@H]1C=C(C)CC[C@H]1C(C)(C)O2`, the Ki in experiment [1] worked out at 469 nM; in experiment [3] it was 0.955 µM. Further, in experiment [2], the Ratio Ki is 2.
In the case of `CCCCCc1cc2c(c([S+](C)[O-])c1)[C@@H]1C=C(C)CC[C@H]1C(C)(C)O2` (single isomer, unassigned; diastereomer B), the Ki in experiment [1] is over 3000 nM; in experiment [3], over 3 µM.
On to `CCCCCCC(C)(C)c1cc(NS(C)(=O)=O)c2c(c1)OC(C)(C)[C@@H]1CCC(C)=C[C@@H]21`, for which the values for the Ki in experiment [1] and in experiment [3] were 255 nM and 1.84 µM, respectively. In addition, the Ratio Ki in experiment [2] is 7.
For `CCCCCc1cc(CNC(N)=O)c2c(c1)OC(C)(C)[C@@H]1CCC(C)=C[C@@H]21`, the Ki in experiment [1] is 782 nM; in experiment [3] it was over 3 µM.
With `CCCCCc1cc(CNS(C)(=O)=O)c2c(c1)OC(C)(C)[C@@H]1CCC(C)=C[C@@H]21`, the Ki in experiment [1] was over 3000 nM; in experiment [3], over 3 µM.
In the case of `CCCCCCC(C)(C)c1cc(C#N)c2c(c1)OC(C)(C)[C@@H]1CCC(C)=C[C@@H]21`, the Ki worked out at 5.3 nM in experiment [1] and 0.0678 µM in experiment [3]. Besides, the Ratio Ki in experiment [2] came out at 13.
In the case of `CCCCCc1cc2c(c(C(=O)NCC(N)=O)c1)[C@@H]1C=C(C)CC[C@H]1C(C)(C)O2`, the Ki in experiment [1] was over 3000 nM; in experiment [3] it was over 3 µM.
